This note sets out measurements from patent US7678386B2, “Liposomes coated with selected antibodies that bind to aminophospholipids” (Board of Regents the University of Texas, priority 2002, dated 2010).

For orientation: EC50 means the concentration at which the effect is half-maximal.

A short description of test [1]: Reactivity with plastic-immobilized phospholipids (ELISA), panel. The format is binding. The protocol: (§1) Phospholipids were dissolved in n-hexane to a concentration of 50 μg/ml. 100 μl of this solution was added to wells of 96-well microtiter plates. After evaporation of the solvent in air, the plates were blocked for 2 h with 10% fetal bovine serum diluted in DPBS containing 2 mM Ca^2+ (binding buffer).
(§2) 9D2 antibody or annexin V were diluted in the binding buffer in the presence of 10% serum at an initial concentration of 6.7 nM. Serial two-fold dilutions were prepared in the plates (100 μl per well). The plates were then incubated for 2 h at room temperature. The plates were washed and the 9D2 and annexin V were detected by goat anti-rat IgM conjugated to HRP and rabbit anti-human annexin V followed by goat anti-rabbit IgG conjugated to HRP (all diluted 1:1000), respectively. Secondary reagents were detected by using chromogenic substrate OPD followed by reading plates at 490 nm using a microplate reader (Molecular Devices, Palo Alto, Calif.).
(§3) The specificity of the 9D2 antibody binding was validated by using control rat IgM of irrelevant specificity (Pharmingen, San Diego, Calif.). The specificity of annexin V binding to phospholipids, which is Ca^2+-dependent, was determined by diluting the reagent in the DPBS containing 5 mM EDTA. Additional negative controls consisted of washing the plates with the binding buffer containing 0.2% of a detergent Tween 20. This treatment extracts lipids, thus removing the phospholipid that was absorbed to plastic. Neither 9D2 antibody nor annexin V bound to detergent-washed plates.
A general note: An ELISA detects its analyte on a solid surface through an enzyme-linked reagent.

Test [2] in a line: Reactivity with plastic-immobilized phospholipid (ELISA). As to conditions: read-out: EC50 of binding. Here is the method:
as §1, §2, §3

The test system of test [3] is vascular endothelium of tumors and normal organs. Nature of the test: Detection of anionic phospholipids in tumor bearing mice in vivo (9D2, annexin V). Set-up: species or system mouse. The protocol: For localization studies, 2×10^7 L540 human Hodgkin's lymphoma cells or 1×10^7 cells of other tumor types were injected subcutaneously into the right flank of SCID mice (Charles River. Wilmington, Mass.). Tumors were allowed to reach a volume of 0.4-0.7 cm^3. A minimum of three animals per group was used. Studies were replicated at least three times.
Female nu/nu or SCID mice were purchased from Charles River. MDA-MB-231 human mammary carcinoma cells were implanted into the mammary fat pad according to a published protocol (Price. 1996). Briefly, mice were anesthetized and a 5-mm incision was made in the skin over the lateral thorax. The mammary pad was exposed to ensure the correct site for injection of 1×10^7 MDA-MB-231 cells re-suspended in 0.1 ml of saline.
To detect externally-positioned phospholipids, methods were performed essentially as previously described (Example V; Ran et al., 1998). Tumor-bearing SCID mice were injected intravenously with either 50 μg of 9D2 or biotinylated 9D2 antibody or 100 μg of biotinylated annexin V. Sixty min later mice were sacrificed and their blood circulation was exsanguinated and perfused with heparinized saline as previously described (Burrows et al., 1992). All major organs and tumor were harvested and snap-frozen for preparation of cryosections.
Sections were blocked with PBS containing 10% serum. To prevent loss of phospholipids during slide processing, detergents and organic solvents were omitted from blocking and washing buffers. Rat IgM was detected using goat anti rat IgM (μspecific)-HRP conjugate followed by development with carbazole or DAB (Fries et al., 1993). Biotinylated reagents were detected by streptavidin conjugated to HRP.
Tumor sections derived from mice injected with saline or rat IgM of irrelevant specificity served as negative controls. Additional controls consisted of incubating the slides in 1% Triton solution or in acetone for 10 min. These treatments extract phospholipids. No signal was detected under these conditions. The number of positive vessels per high power field was determined at magnification of ×100. At least 10 fields per section were examined and the average percentage of positive vessels was calculated. Staining of the sections by this method for the presence of 9D2 or annexin V detects cells having externalized anionic phospholipids that were accessible for binding by the reagents in vivo.
Structures with localized 9D2 antibody or annexin V were identified as blood vessels by morphological appearance on DAB-stained sections and by co-incident staining with the pan-endothelial cell marker, MECA 32 on serial sections of frozen tissues. Quantification on DAB-stained sections was done by counting vessels stained by MECA 32, 9D2 or annexin V in serial sections of a tumor. Six slides of each tumor type derived from 6 mice injected with 9D2 antibody, control rat IgM or annexin V were examined. At least 10 random fields per section (0.317 mm^2/field) were scored in blinded fashion by two independent observers. The mean numbers and standard errors of vessels stained by 9D2, annexin V or MECA 32 were calculated. The mean number of 9D2 or annexin V-positive vessels determined in each tumor type group was compared to the mean number of MECA 32-positive vessels in the same tumor group. The percentage of 9D2 or annexin V-positive vessels was calculated.

Test [4] deals with Factor Xa generation on IL-1α-stimulated bEnd.3 cells. Briefly: Factor Xa formation induced by coaguligand (chromogenic assay). The class given is cell-based, mouse. The note with it: 10 μg per ml. Here is the method:
The ability of Annexin V to affect Factor Xa formation induced by coaguligand was determined by a chromogenic assay. IL-1α-stimulated bEnd.3 cells were incubated with anti-VCAM-•tTF and permeabilized by saponin. Annexin V was added at concentrations ranging from 0.1 to 10 μg/ml and cells were incubated for 30 min. before addition of diluted Proplex T. The amount of Factor Xa generated in the presence or absence of Annexin V was determined. Each treatment was performed in duplicate and repeated at least twice.

Where two headings read alike, the source gives them in different places.

Turning to “Annexin V: high affinity PS binding ligand; natural ligand of anionic phospholipids and PE”, the “binding to anionic phospholipids in the presence of 5 mM EDTA” value in test [1] is listed as “abolished”. The “binding to heparin, heparan sulfate or double or single stranded DNA” value in test [1] is on record as “did not bind detectably”. The “order of strength of binding to phospholipids in ELISA” value in test [1] (10% serum) was “PI>PS=PE=PA=CL>PG”. Moreover, the EC50 is 0.13 nM in test [2] (CL); 0.1 nM in test [2] (PA); above 8 nM in test [2] (PC); 0.1 nM in test [2] (PE); 0.25 nM in test [2] (PG); 0.05 nM in test [2] (PI). Besides, the EC50 in test [2] (PS) is 0.1 nM; in test [2] (SM), above 8 nM. Moreover, the “PS-positive vessels of MECA 32-stained vessels (mean ±SE)” value in test [3] (B16 tumor) was found to be 21.3 ± 6.6%; in test [3] (L540cy tumor), 16.7 ± 3.9%; in test [3] (MDA-MB-231 tumor) it was 45.3 ± 5.6%; in test [3] (MDA-MB-231 tumor, listed as annexin V), 40%; in test [3] (NCI-H358 tumor), 15%. Also, in test [3] (nine of ten normal organs examined (kidney tubules non-specific)), the “vascular localization in normal organs” value is “No vascular localization”. In test [4], the “inhibition of factor Xa production” value amounted to 58%.
